According to patent publication US11111270B2, “Inhibitor of apoptosis protein (IAP) antagonists” (Sanford Burnham Prebys Medical Discovery Institute, priority 2012, dated 2021):
pKi: −log10 of the molar value.

How the values were obtained:
XIAP BIR1/2 = XIAP BIR1/2 (Homo sapiens, UniProt P98170); test: XIAP BIR1/2 Ki; assay type: binding
XIAP BIR3 = XIAP BIR3 (Homo sapiens (Human), UniProt P98170); test: XIAP BIR3 Ki; assay type: binding
ML-IAP = ML-IAP (Homo sapiens (Human), UniProt Q96CA5); test: ML-IAP Ki; assay type: binding
Sequence of ML-IAP (Q96CA5 whole entry, species assumed): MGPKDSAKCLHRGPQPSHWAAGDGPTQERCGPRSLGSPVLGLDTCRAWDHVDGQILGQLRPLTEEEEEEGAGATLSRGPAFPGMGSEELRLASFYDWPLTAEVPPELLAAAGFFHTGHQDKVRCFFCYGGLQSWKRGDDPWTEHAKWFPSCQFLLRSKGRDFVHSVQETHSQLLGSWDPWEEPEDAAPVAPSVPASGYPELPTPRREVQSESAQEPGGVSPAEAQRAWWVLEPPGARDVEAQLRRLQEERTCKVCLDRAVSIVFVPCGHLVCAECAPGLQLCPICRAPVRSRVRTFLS

PPC-1 cells [1] = test: PPC-1 cell survival with TRAIL (Cell Titer Glo); assay type: cell-based
Procedure: (§1) 5000 PPC-1 cells were plated and grown overnight. Compounds were plated and 4 hrs later, TRAIL was added to half of the plate while RPMI was added to the other half of the plate as a control. Plates were return to the incubator for 24 hrs. Plates were removed from the incubator and placed on the bench for 30 min and then 25 uL of Cell Titer Glo were added per well. Plates were placed on a rocker and then read on a luminometer. 5000 MDA-MB-231 cells were plated per well. Compound was added and 4 hrs later, TRAIL was added at 5 ng/mL; RPMI was added for a minus TRAIL control. Plates were incubated an additional 24 hrs, removed to the bench for 30 min, and then 25 uL of cell titer glo was added per well. Plates were placed on a rocker and read on a luminometer. Data were fit using PRISM.

PPC-1 cells [2] = test: PPC-1 cell survival with TNFα; assay type: cell-based
Procedure: as §1, with “Compounds were plated and 4 hrs later, TRAIL was added to half of the plate while RPMI was added to the other half of the plate as a control.” left out

MDA-MB-231 cells = test: MDA-MB-231 cell survival (Cell Titer Glo); assay type: cell-based
Procedure: as §1

Sequence of XIAP BIR1/2 (P98170 whole entry, looked up): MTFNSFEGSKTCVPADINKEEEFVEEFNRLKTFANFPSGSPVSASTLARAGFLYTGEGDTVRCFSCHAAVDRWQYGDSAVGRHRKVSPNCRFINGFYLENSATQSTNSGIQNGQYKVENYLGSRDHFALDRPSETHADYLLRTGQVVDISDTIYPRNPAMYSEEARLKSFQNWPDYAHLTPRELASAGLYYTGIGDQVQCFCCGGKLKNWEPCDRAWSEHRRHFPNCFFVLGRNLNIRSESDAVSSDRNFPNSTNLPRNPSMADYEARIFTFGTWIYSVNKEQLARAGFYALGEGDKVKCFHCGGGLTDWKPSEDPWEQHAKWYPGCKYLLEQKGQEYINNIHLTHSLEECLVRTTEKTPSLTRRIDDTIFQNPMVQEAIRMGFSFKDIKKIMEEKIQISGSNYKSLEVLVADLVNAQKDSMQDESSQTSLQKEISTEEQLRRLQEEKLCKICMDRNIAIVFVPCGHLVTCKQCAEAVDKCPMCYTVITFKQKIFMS
Sequence of XIAP BIR3 (P98170 241-356): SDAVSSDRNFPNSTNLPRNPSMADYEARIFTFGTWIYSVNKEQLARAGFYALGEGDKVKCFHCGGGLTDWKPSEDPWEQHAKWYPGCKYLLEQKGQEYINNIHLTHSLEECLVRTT

Row | Compound | pKi (XIAP BIR1/2; Table B-1) | pKi (XIAP BIR3; Table B-1) | further results
1 | CN[C@@H](C)C(=O)N[C@H]1CCO[C@H]2CC3(CCCC3)C(C(=O)N[C@@H]3CCCc4ccccc43)N2C1=O (stereo partly shown) [Product 43] | > 4.60 | > 4.60 | –
2 | CN[C@@H](C)C(=O)N[C@H]1CCO[C@H]2CC3(CC=CC3)C(C(=O)N[C@@H]3CCCc4ccccc43)N2C1=O (stereo partly shown) [Product 42] | > 4.60 | > 4.60 | pKi (ML-IAP; Table B-1): > 4.60
3 | CN[C@@H](C)C(=O)N[C@H]1CCS[C@H]2CC[C@H](C(=O)N[C@@H]3CCCc4ccccc43)N2C1=O [Product 36] | < 4.30 | > 4.60 | pKi (ML-IAP; Table B-1): > 4.60
4 | CNC(C)C(=O)N[C@H]1CO[C@H]2CCC(C(=O)Nc3ccc(OC)cc3)N2C1=O (stereo partly shown) [Product 4] | < 4.30 | 4.30 to 4.60 | –
5 | CN[C@@H](C)C(=O)N[C@H]1CCS[C@H]2CC(C)(C)C(C(=O)N[C@@H]3CCCc4ccccc43)N2C1=O (stereo partly shown) [Product 35] | > 4.60 | > 4.60 | pKi (ML-IAP; Table B-1): > 4.60; PPC-1 (TRAIL) LD50 (PPC-1 cells [1]): A (A = ≤ 25 micromolar); PPC-1 (TNFα) LD50 (PPC-1 cells [2]): A (A = ≤ 25 micromolar)
6 | CN[C@@H](C)C(=O)N[C@H]1CCCNC2CCC(C(=O)N[C@@H]3CCCc4ccccc43)N2C1=O (stereo partly shown) [Product 16] | – | > 4.60 | –
7 | CN[C@@H](C)C(=O)N[C@H]1CCS[C@H]2CCCC(C(=O)N[C@@H]3CCCc4ccccc43)N2C1=O (stereo partly shown) [Product 41] | > 4.60 | > 4.60 | –
8 | CN[C@@H](C)C(=O)N[C@H]1CO[C@H]2CCC(C(=O)Nc3ccc(Cl)cc3)N2C1=O (stereo partly shown) [Product 8] | < 4.30 | – | –
9 | CN[C@@H](C)C(=O)N[C@H]1CCS(=O)(=O)[C@H]2CC[C@@H](C(=O)N[C@@H]3CCCc4ccccc43)N2C1=O [Product 37] | < 4.30 | > 4.60 | –
10 | CN[C@@H](C)C(=O)N[C@H]1CCS(=O)(=O)[C@H]2CC[C@H](C(=O)N[C@@H]3CCCc4ccccc43)N2C1=O [Product 38] | < 4.30 | – | –
11 | CN[C@@H](C)C(=O)N[C@H]1CCN[C@H]2CCC(C(=O)N[C@@H]3CCCc4ccccc43)N2C1=O (stereo partly shown) [Product 29] | – | < 4.30 | –
12 | CN[C@@H](C)C(=O)N[C@@H]1C(=O)N2C(C(=O)NC3CCCc4ccccc43)CC[C@@H]2O[C@@H]1C (stereo partly shown) [Product 10] | < 4.30 | > 4.60 | pKi (ML-IAP; Table B-1): > 4.60
13 | CN[C@@H](C)C(=O)N[C@H]1CCCN(C(C)=O)C2CCC(C(=O)N[C@@H]3CCCc4ccccc43)N2C1=O (stereo partly shown) [Product 20] | < 4.30 | > 4.60 | –
14 | CN[C@@H](C)C(=O)NC1CCO[C@H]2CCC(C(=O)Nc3cccc4ccccc34)N2C1=O (stereo partly shown) [Product 13] | > 4.60 | > 4.60 | –
15 | CC(=O)N(C)[C@@H](C)C(=O)N[C@H]1CCCN(C(C)=O)[C@H]2CCC(C(=O)Nc3cccc4ccccc34)N2C1=O (stereo partly shown) [Product 18] | < 4.30 | – | –
16 | CN[C@@H](C)C(=O)N[C@H]1CC(=O)N[C@H]2CC(C)(C)C(C(=O)N[C@@H]3CCCc4ccccc43)N2C1=O (stereo partly shown) [Product 46] | < 4.30 | > 4.60 | pKi (ML-IAP; Table B-1): > 4.60
17 | CN[C@@H](C)C(=O)N[C@H]1CCO[C@H]2CC[C@@H](C(=O)N[C@@H]3CCCc4ccccc43)N2C1=O [Product 33] | < 4.30 | > 4.60 | pKi (ML-IAP; Table B-1): > 4.60; PPC-1 (TRAIL) LD50 (PPC-1 cells [1]): A (A = ≤ 25 micromolar); PPC-1 (TNFα) LD50 (PPC-1 cells [2]): A (A = ≤ 25 micromolar)
18 | CN[C@@H](C)C(=O)NC1CCO[C@H]2CC[C@@H](C(=O)n3ccc4ccccc43)N2C1=O (stereo partly shown) [Product 23] | < 4.30 | 4.30 to 4.60 | –
19 | CN[C@@H](C)C(=O)N[C@H]1CCO[C@H]2CC(C)(C)C(C(=O)N[C@@H]3CCCc4ccccc43)N2C1=O (stereo partly shown) [Product 17b] | – | – | pKi (XIAP BIR1/2; Table 2-2): > 4.60; pKi (ML-IAP; Table 2-2): > 4.60; pKi (XIAP BIR3; Table 2-2): > 4.60
20 | CN[C@@H](C)C(=O)N[C@H]1CO[C@H]2CCC(C(=O)NCc3ccccc3)N2C1=O (stereo partly shown) [Product 5] | < 4.30 | – | –

Row | Compound | pKi (XIAP BIR1/2; Table B-1) | pKi (XIAP BIR3; Table B-1) | further results
21 | CN[C@@H](C)C(=O)N[C@H]1CO[C@H]2CCC(C(=O)Nc3ccc(OC)cc3)N2C1=O (stereo partly shown) [Product 3] | < 4.30 | – | –
22 | CN[C@@H](C)C(=O)N[C@H]1CCO[C@H]2CC[C@H](C(=O)N[C@@H]3CCOc4ccccc43)N2C1=O [Product 39] | < 4.30 | – | –
23 | CN[C@@H](C)C(=O)N[C@H]1CCO[C@H]2CC[C@@H](C(=O)N[C@@H]3CCOc4ccccc43)N2C1=O [Product 32] | < 4.30 | > 4.60 | MDA-MB-231 LD50 (MDA-MB-231 cells): A (A = ≤ 25 micromolar); pKi (ML-IAP; Table B-1): > 4.60; PPC-1 (TRAIL) LD50 (PPC-1 cells [1]): A (A = ≤ 25 micromolar); PPC-1 (TNFα) LD50 (PPC-1 cells [2]): A (A = ≤ 25 micromolar)
24 | CN[C@@H](C)C(=O)N[C@H]1Cc2ccc(O)cc2[C@H]2CC(C)(C)C(C(=O)N[C@@H]3CCCc4ccccc43)N2C1=O (stereo partly shown) [Product 45] | > 4.60 | > 4.60 | –
25 | CN[C@@H](C)C(=O)N[C@H]1CCN[C@H]2CCC(C(=O)N[C@@H]3CCCc4ccccc43)N2C1=O (stereo partly shown) [Product 28] | < 4.30 | – | –
26 | CN[C@@H](C)C(=O)N[C@H]1CCO[C@H]2c3ccccc3C(C(=O)N[C@@H]3CCCc4ccccc43)N2C1=O (stereo partly shown) [Product 17a] | – | – | pKi (XIAP BIR1/2; Table 2-2): < 4.30; pKi (ML-IAP; Table 2-2): > 4.60; pKi (XIAP BIR3; Table 2-2): > 4.60
27 | CN[C@@H](C)C(=O)N[C@H]1CCO[C@H]2CC(C)(C)C(C(=O)Nc3ccccc3SSc3ccccc3NC(=O)C3N4C(=O)[C@@H](NC(=O)[C@H](C)NC)CCO[C@H]4CC3(C)C)N2C1=O (stereo partly shown) [Product 40] | > 4.60 | > 4.60 | –
28 | CN[C@@H](C)C(=O)NC1CCO[C@H]2CC[C@H](C(=O)n3ccc4ccccc43)N2C1=O (stereo partly shown) [Product 22] | < 4.30 | 4.30 to 4.60 | –
29 | CN[C@@H](C)C(=O)N[C@H]1CCCNC2CCC(C(=O)Nc3cccc4ccccc34)N2C1=O (stereo partly shown) [Product 17] | > 4.60 | > 4.60 | –
30 | CN[C@@H](C)C(=O)N[C@H]1CCO[C@H]2CCC(C(=O)NC(c3ccccc3)c3ccccc3)N2C1=O (stereo partly shown) [Product 14] | < 4.30 | > 4.60 | pKi (ML-IAP; Table B-1): > 4.60
31 | CN[C@@H](C)C(=O)N[C@@H]1C(=O)N2C(C(=O)Nc3cccc4ccccc34)CC[C@@H]2O[C@@H]1C (stereo partly shown) [Product 11] | < 4.30 | – | –
32 | CN[C@@H](C)C(=O)N[C@H]1Cc2c([nH]c3ccccc23)[C@H]2CCC(C(=O)N[C@@H]3CCCc4ccccc43)N2C1=O (stereo partly shown) [Product 31] | > 4.60 | > 4.60 | –
33 | CN[C@@H](C)C(=O)N[C@H]1CCS[C@H]2CC[C@@H](C(=O)N[C@@H]3CCCc4ccccc43)N2C1=O [Product 34] | < 4.30 | > 4.60 | pKi (ML-IAP; Table B-1): > 4.60; PPC-1 (TRAIL) LD50 (PPC-1 cells [1]): A (A = ≤ 25 micromolar); PPC-1 (TNFα) LD50 (PPC-1 cells [2]): A (A = ≤ 25 micromolar)
34 | CN[C@@H](C)C(=O)N[C@H]1CCS[C@H]2CC(C)(C)C(C(=O)N[C@@H]3CCCc4ccccc43)N2C1=O (stereo partly shown) [Product 17c] | – | – | pKi (XIAP BIR1/2; Table 2-2): > 4.60; pKi (ML-IAP; Table 2-2): > 4.60; pKi (XIAP BIR3; Table 2-2): > 4.60
35 | CN[C@@H](C)C(=O)N[C@H]1Cc2c([nH]c3ccccc23)[C@H]2CCC(C(=O)N[C@@H]3CCCc4ccccc43)N2C1=O (stereo partly shown) [Product 30] | < 4.30 | 4.30 to 4.60 | –
36 | CN[C@@H](C)C(=O)N[C@H]1CO[C@H]2CCC(C(=O)NC3CCCc4ccccc43)N2C1=O (stereo partly shown) [Product 9] | < 4.30 | > 4.60 | –
37 | CN[C@@H](C)C(=O)N[C@H]1CCO[C@H]2c3ccccc3C(C(=O)N[C@@H]3CCCc4ccccc43)N2C1=O (stereo partly shown) [Product 27] | < 4.30 | > 4.60 | pKi (ML-IAP; Table B-1): > 4.60; PPC-1 (TRAIL) LD50 (PPC-1 cells [1]): A (A = ≤ 25 micromolar); PPC-1 (TNFα) LD50 (PPC-1 cells [2]): A (A = ≤ 25 micromolar)
38 | CN[C@@H](C)C(=O)N[C@H]1CCO[C@H]2CC[C@@H](C(=O)Nc3cccc4ccccc34)N2C1=O [Product 25] | > 4.60 | > 4.60 | –
39 | CN[C@@H](C)C(=O)N[C@@H]1C(=O)N2C(C(=O)NC(c3ccccc3)c3ccccc3)CC[C@@H]2O[C@@H]1C (stereo partly shown) [Product 15] | < 4.30 | – | –
